Results published in patent US20160242416A1, “FUNGICIDAL ISOXAZOLINE CARBINOLS” (E I DU PONT DE NEMOURS AND COMPANY, priority 2015, published 2016).

How the values were obtained:
Botrytis cinerea = assay: Test B: gray mold, preventive spray on tomato seedlings; settings: 100 = 100% disease control; for Test B rating (% disease control): 10 ppm, gray mold on tomato, 0 = no control; for Test B disease control rating: 10 ppm test solution, 0 = no control relative to controls
[1] = system: Puccinia recondita f sp. tritici; assay: Test F: wheat leaf rust, preventive spray on wheat seedlings; settings: 100 = 100% disease control; for Test F rating (% disease control): 10 ppm, wheat leaf rust, 0 = no control; for Test F disease control rating: 10 ppm test solution, 0 = no control relative to controls
Zymoseptoria tritici = assay: Test E: wheat leaf blotch, preventive spray on wheat seedlings; settings: 100 = 100% disease control; for Test E rating (% disease control): 10 ppm, wheat leaf blotch, 0 = no control; for Test E disease control rating: 10 ppm test solution, 0 = no control relative to controls
Stagonospora nodorum = assay: Test D: wheat glume blotch, preventive spray on wheat seedlings; settings: 100 = 100% disease control; for Test D rating (% disease control): 10 ppm, wheat glume blotch, 0 = no control; for Test D disease control rating: 10 ppm test solution, 0 = no control relative to controls
[2] = system: Erysiphe graminis f sp. tritici; assay: Test G: wheat powdery mildew, preventive spray on wheat seedlings; settings: 100 = 100% disease control; for Test G rating (% disease control): 10 ppm, wheat powdery mildew, 0 = no control; for Test G disease control rating: 10 ppm test solution, 0 = no control relative to controls

SMILES | Test B rating (% disease control) (Botrytis cinerea) | Test F rating (% disease control) [1] | Test E rating (% disease control) (Zymoseptoria tritici) | Test D rating (% disease control) (Stagonospora nodorum) | Test G rating (% disease control) [2] | Test B disease control rating (Botrytis cinerea) | Test F disease control rating [1] | Test E disease control rating (Zymoseptoria tritici) | Test D disease control rating (Stagonospora nodorum) | Test G disease control rating [2]
OC(Cn1cncn1)(C1=NOC(c2ccc(Cl)cc2)C1)c1ccccc1F (single isomer, unassigned) [Compound 134] | 0% | 99% | 31% | 100% | 98% |  |  |  |  | 
CC(C)(C)CC(O)(Cn1cncn1)C1=NOC(COc2ccc(Br)cc2)C1 (single isomer, unassigned) [Compound 170] | 0% | 100% | 68% | 99% | 99% |  |  |  |  | 
OC(Cn1cncn1)(C1=NOC(c2ccc(Cl)cc2)C1)c1cccc(Oc2ccccc2)c1 (single isomer, unassigned) [Compound 109] | 0% | 100% | 66% | 59% | 93% |  |  |  |  | 
CC(C)(C)C(O)(Cn1cncn1)C1=NOC(COc2ccc(Cl)cc2)C1 (stereo not drawn) [Compound 175, α-[5-[(4-chlorophenoxy)methyl]-4,5-dihydro-3-isoxazolyl]-α-(1,1-dimethylethyl)-1H-1,2,4-triazole-1-ethanol] | 0% | 100% | 1% | 100% | 100% |  |  |  |  | 
CC(C)(C)C(O)(Cn1cncn1)C1=NOC(COC2CCCCC2)C1 (single isomer, unassigned) [Compound 91] | 0% | 0% | 2% | 20% | 56% |  |  |  |  | 
CC(C)(C)CC(O)(Cn1cncn1)C1=NOC(Cc2ccc(C(F)(F)F)cc2)C1 (single isomer, unassigned) [Compound 226] |  |  |  |  |  | 0% | 100% | 0% | 51% | 99%
CCCCC(O)(Cn1cncn1)C1=NOC(c2ccc(Cl)cc2)C1 (single isomer, unassigned) [Compound 156] | 0% | 100% | 19% | 98% | 100% |  |  |  |  | 
OC(Cn1cncn1)(C1=NOC(c2ccc(Oc3ccccc3)cc2)C1)c1ccc(Cl)cc1 (single isomer, unassigned) [Compound 143] | 0% | 67% | 1% | 0% | 76% |  |  |  |  | 
CCC(C)(C)C(O)(Cn1cncn1)C1=NOC(COc2ccc(Br)cc2)C1 (single isomer, unassigned) [Compound 11] | 81% | 100% | 88% | 100% | 99% |  |  |  |  | 
OC(Cn1cncn1)(C1=NOC(Cc2ccc(F)cc2)C1)c1ccc(Cl)cc1 (single isomer, unassigned) [Compound 200] | 0% | 99% | 16% | 11% | 99% |  |  |  |  | 
OC(Cn1cncn1)(C1=NOC(c2cccc(Oc3ccccc3)c2)C1)c1ccc(Cl)cc1 (single isomer, unassigned) [Compound 176] | 0% | 100% | 2% | 82% | 100% |  |  |  |  | 
CC(C)(C)C(O)(Cn1cncn1)C1=NOC(COc2cccc(Br)c2)C1 (single isomer, unassigned) [Compound 233] |  |  |  |  |  | 40% | 100% | 0% | 100% | 99%
OC(Cn1cncn1)(C1=NOC(COc2ccc(OCc3ccccc3)cc2)C1)c1ccc(Cl)cc1 (single isomer, unassigned) [Compound 69] | 27% | 100% | 25% | 38% | 94% |  |  |  |  | 
CC(C)(C)C(O)(Cn1cncn1)C1=NOC(Cc2ccc(Br)cc2)C1 (single isomer, unassigned) [Compound 52] | 98% | 100% | 4% | 100% | 100% |  |  |  |  | 
